This note sets out measurements from patent US10092547B2, “Substituted aliphanes, cyclophanes, heteraphanes, heterophanes, hetero- heteraphanes and metallocenes useful for treating HCV infections” (priority 2011, dated 2018).

One experiment concerns HCV replicon (NS5A1b) in Huh-7 cells. Description: microbe, parasite or virus in culture. The experiment is classed as cell-based. The following applies: Hepatitis C virus, 72 h; NS5A1b; HCV replicon-containing Huh-7 cells, three days; read-out: EC50 (μM) NS5A1b. On the procedure:
Compounds claimed herein are tested for the ability to inhibit viral replication of the Hepatitis C replicon in cultured cells in which the HCV replicon construct has been incorporated. The HCV replicon system was described by Bartenschlager, et. al (Science, 285, pp. 110-113 (1999)). The replicon system is predictive of in vivo anti-HCV activity; compounds that are active in humans uniformly evidence activity in the replicon assay.
In this assay HCV replicon containing cells are treated with different concentrations of the test compound to ascertain the ability of the test compound to suppress replication of the HCV replicon. As a positive control, HCV replicon-containing cells are treated with different concentrations of interferon alpha, a known inhibitor of HCV replication. The replicon assay system includes Neomycin Phosphotransferase (NPT) as a component of the replicon itself in order to detect the transcription of replicon gene products in the host cell. Cells in which the HCV replicon is actively replicating have high levels of NPT; the level of NPT is proportional to HCV replication. […] The NPT level of each sample is measured using a captured ELISA.
A protocol for testing compounds for the ability to inhibit viral replication of the Hepatitis C replicon cultured cells in which the replicon construct has been incorporated, follows.
The HCV replicon contains, 5′-3′, the HCV-IRES, the neomycin phosphotransferase (neo) gene, the IRES of encephalomyocarditis virus, which directs translation of HCV sequences NS3 to NS5B, and the 3′-NTR. The sequence of the HCV replicon has been deposited in GenBank (Accession no. AJ242652).
The replicon is transfected into Huh-7 cells using standard methods such as electroporation.
The equipment and materials include, but are not limited to, Huh-7 HCV replicon-containing cells, maintenance media (DMEM (Dulbecco's modified Eagle media) supplemented with 10% FBS, L-glutamine, non-essential amino acids, penicillin (100 units/ml), streptomycin (100 micrograms/ml), and 500 micrograms/ml of Geneticin (G418), screening media (DMEM supplemented with 10% FBS, L-glutamine, non-essential amino acids, penicillin (100 units/ml) and streptomycin (100 micrograms/ml), 96 well tissue culture plates (flat bottom), 96 well plates (U bottom for drug dilution), Interferon alpha for positive control, fixation reagent (such as methanol: acetone), primary antibody (rabbit anti-NPTII), secondary antibody: Eu-N1 1, and enhancement solution.
HCV replicon-containing cells support high levels of viral RNA replicon replication when their density is suitable. Over-confluency causes decreased viral RNA replication. Therefore, cells must be kept growing in log phase in the presence of 500 micrograms/ml of G418. Generally, cells should be passed twice a week at 1:4-6 dilution. Cell maintenance is conducted as follows:
HCV replicon-containing cells are examined under a microscope to ensure that cells growing well. Cells are rinsed once with PBS and 2 ml trypsin is added. The cell/trypsin mixture is incubated at 37° C. in a CO2 incubator for 3-5 minutes. After incubation 10 ml of complete media is added to stop the trypsinization reaction. Cells are blown gently, put into a 15 ml tube, and spun at 1200 rpm for 4 minutes. The trypsin/medium solution is removed. Medium (5 ml) is added and the cells are mixed carefully. The cells are counted.
The cells are then seeded onto 96-well plates at a density of 6000-7500 cells/100 microliters/well (6-7.5×10^5 cells/10 ml/plate). The plates are then incubated at 37° C. in a 5% CO2 incubator.
Cells are examined under a microscope approximated 24 hours after seeding and prior to adding drugs. If counting and dilution were performed correctly, cells are 60-70% confluent and nearly all cells should attach and spread evenly in the well.
HCV replicon-containing cells are rinsed with once PBS once; 2 mls of trypsin are then added. Cells are incubated at 37° C. in a 5% CO2 incubator for 3-5 minutes. […]
In the case of `COC(=O)N[C@H](C(=O)N1CCC[C@H]1c1nc(-c2ccc(-c3cc4ccc3CCc3ccc(c(-c5ccc(-c6c[nH]c([C@@H]7CCCN7C(=O)[C@@H](NC(=O)OC)C(C)C)n6)cc5)c3)CC4)cc2)c[nH]1)C(C)C` [Compound 40], the EC50 worked out at 0.012 nM.

`COC(=O)N[C@H](C(=O)N1[C@H](c2nc3cc(-c4cc5ccc4CCc4ccc(c(-c6ccc7[nH]c([C@@H]8C[C@@H]9CCCC[C@@H]9N8C(=O)[C@@H](NC(=O)OC)C(C)C)nc7c6)c4)CC5)ccc3[nH]2)C[C@@H]2CCCC[C@@H]21)C(C)C` [Compound 43]: the EC50 came to 2.85 nM.

As for `COC(=O)N[C@H](C(=O)N1CCC[C@H]1c1ncc(-c2ccc(C34CC(c5ccc(-c6cnc([C@@H]7CCCN7C(=O)[C@@H](NC(=O)OC)C(C)C)[nH]6)cc5)(C3)C4)cc2)[nH]1)C(C)C` [Compound 44], the EC50 is 4.08 nM.

Consider `COC(=O)N[C@H](C(=O)N1CCC[C@H]1c1nc2cc(-c3cc4ccc3CCc3ccc(c(-c5ccc6[nH]c([C@@H]7CCCN7C(=O)[C@@H](NC(=O)OC)C(C)C)nc6c5)c3)CC4)ccc2[nH]1)C(C)C` [Compound 45], for which the EC50 was below 3.2 nM.

On to `COC(=O)N[C@H](C(=O)N1CCC[C@H]1c1nc(-c2ccc(-c3cc4c(-c5c[nH]c([C@@H]6CCCN6C(=O)[C@@H](NC(=O)OC)C(C)C)n5)cc3CCc3ccc(cc3)CC4)cc2)c[nH]1)C(C)C` [Compound 46], for which the EC50 was below 3.17 nM.

With `COC(=O)N[C@H](C(=O)N1CCC[C@H]1c1nc(-c2ccc(-c3cc4ccc3CCc3ccc(c(-c5c[nH]c([C@@H]6CCCN6C(=O)[C@@H](NC(=O)OC)C(C)C)n5)c3)CC4)cc2)c[nH]1)C(C)C` [Compound 47], the EC50 stood at 5.02 nM.

On to `COC(=O)N[C@H](C(=O)N1CCC[C@H]1c1nc2cc(-c3cc4ccc3CCc3ccc(c(-c5ccc6[nH]c([C@@H]7CCCN7C(=O)[C@@H](NC(=O)OC)c7ccccc7)nc6c5)c3)CC4)ccc2[nH]1)c1ccccc1` [Compound 49], for which the EC50 amounted to 10.2 nM.

For `COC(=O)N[C@@H](CCSC)C(=O)N1CCC[C@H]1c1nc2cc(-c3cc4ccc3CCc3ccc(c(-c5ccc6[nH]c([C@@H]7CCCN7C(=O)[C@H](CCSC)NC(=O)OC)nc6c5)c3)CC4)ccc2[nH]1` [Compound 50], the EC50 was 8.41 nM.

`COC(=O)N1CCC[C@H]1C(=O)N1CCC[C@H]1c1nc2cc(-c3cc4ccc3CCc3ccc(c(-c5ccc6[nH]c([C@@H]7CCCN7C(=O)[C@@H]7CCCN7C(=O)OC)nc6c5)c3)CC4)ccc2[nH]1` [Compound 51]: the EC50 was above 1000 nM.

As to `COC(=O)N[C@H](C(=O)N1CCC[C@H]1c1nc(-c2ccc(-c3cc4ccc3CCc3ccc(c(-c5ccc(-c6c[nH]c([C@@H]7CCCN7C(=O)[C@@H](NC(=O)OC)c7ccccc7)n6)cc5)c3)CC4)cc2)c[nH]1)c1ccccc1` [Compound 52], the EC50 was determined as 9.83 nM.

For the molecule `COC(=O)N[C@@H](CCSC)C(=O)N1CCC[C@H]1c1nc(-c2ccc(-c3cc4ccc3CCc3ccc(c(-c5ccc(-c6c[nH]c([C@@H]7CCCN7C(=O)[C@H](CCSC)NC(=O)OC)n6)cc5)c3)CC4)cc2)c[nH]1` [Compound 53], the EC50 came to 211 nM.

As to `COC(=O)N1CCC[C@H]1C(=O)N1CCC[C@H]1c1nc(-c2ccc(-c3cc4ccc3CCc3ccc(c(-c5ccc(-c6c[nH]c([C@@H]7CCCN7C(=O)[C@@H]7CCCN7C(=O)OC)n6)cc5)c3)CC4)cc2)c[nH]1` [Compound 54], the 50% effective concentration (EC50) is above 1000 nM.

In the case of `C=CCOC(=O)N[C@H](C(=O)N1CCC[C@H]1c1nc(-c2ccc(-c3cc4ccc3CCc3ccc(c(-c5ccc(-c6c[nH]c([C@@H]7CCCN7C(=O)[C@@H](NC(=O)OCC=C)C(C)C)n6)cc5)c3)CC4)cc2)c[nH]1)C(C)C` [Compound 55], the EC50 was above 1000 nM.

As for `C=CCOC(=O)N[C@@H](CCSC)C(=O)N1CCC[C@H]1c1nc(-c2ccc(-c3cc4ccc3CCc3ccc(c(-c5ccc(-c6c[nH]c([C@@H]7CCCN7C(=O)[C@H](CCSC)NC(=O)OCC=C)n6)cc5)c3)CC4)cc2)c[nH]1` [Compound 57], the EC50 was above 1000 nM.

In the case of `C=CCOC(=O)N1CCC[C@H]1C(=O)N1CCC[C@H]1c1nc(-c2ccc(-c3cc4ccc3CCc3ccc(c(-c5ccc(-c6c[nH]c([C@@H]7CCCN7C(=O)[C@@H]7CCCN7C(=O)OCC=C)n6)cc5)c3)CC4)cc2)c[nH]1` [Compound 58], the EC50 was above 1000 nM.

For the molecule `C=CCOC(=O)N[C@H](C(=O)N1CCC[C@H]1c1nc(-c2ccc(-c3cc4ccc3CCc3ccc(c(-c5ccc(-c6c[nH]c([C@@H]7CCCN7C(=O)[C@@H](NC(=O)OCC=C)c7ccccc7)n6)cc5)c3)CC4)cc2)c[nH]1)c1ccccc1` [Compound 59], the half-maximal effective concentration (EC50) was found to be 548 nM.

In the case of `COC(=O)N[C@H](C(=O)N1[C@H](c2nc(-c3ccc(-c4cc5ccc4CCc4ccc(c(-c6ccc(-c7c[nH]c([C@@H]8C[C@@H]9CCCC[C@@H]9N8C(=O)[C@@H](NC(=O)OC)C(C)C)n7)cc6)c4)CC5)cc3)c[nH]2)C[C@@H]2CCCC[C@@H]21)C(C)C` [Compound 60], the EC50 is 128 nM.

For `COC(=O)N[C@@H](CCSC)C(=O)N1[C@H](c2nc(-c3ccc(-c4cc5ccc4CCc4ccc(c(-c6ccc(-c7c[nH]c([C@@H]8C[C@@H]9CCCC[C@@H]9N8C(=O)[C@H](CCSC)NC(=O)OC)n7)cc6)c4)CC5)cc3)c[nH]2)C[C@@H]2CCCC[C@@H]21` [Compound 61], the 50% effective concentration (EC50) came out at 75.2 nM.

Regarding `COC(=O)N[C@H](C(=O)N1[C@H](c2nc(-c3ccc(-c4cc5ccc4CCc4ccc(c(-c6ccc(-c7c[nH]c([C@@H]8C[C@@H]9CCCC[C@@H]9N8C(=O)[C@@H](NC(=O)OC)c8ccccc8)n7)cc6)c4)CC5)cc3)c[nH]2)C[C@@H]2CCCC[C@@H]21)c1ccccc1` [Compound 62], the 50% effective concentration (EC50) is 75 nM.

On to `COC(=O)N1CCC[C@H]1C(=O)N1[C@H](c2nc(-c3ccc(-c4cc5ccc4CCc4ccc(c(-c6ccc(-c7c[nH]c([C@@H]8C[C@@H]9CCCC[C@@H]9N8C(=O)[C@@H]8CCCN8C(=O)OC)n7)cc6)c4)CC5)cc3)c[nH]2)C[C@@H]2CCCC[C@@H]21` [Compound 63], for which the 50% effective concentration (EC50) is 899 nM.

Consider `COC(=O)N[C@H](C(=O)N1C[C@H](C)C[C@H]1c1nc2cc(-c3cc4ccc3CCc3ccc(c(-c5ccc6[nH]c([C@@H]7C[C@@H](C)CN7C(=O)[C@@H](NC(=O)OC)C(C)C)nc6c5)c3)CC4)ccc2[nH]1)C(C)C` [Compound 66], for which the EC50 was 0.005 nM.

Regarding `COC(=O)N[C@@H](CCC#N)C(=O)N1[C@H](c2nc3cc(-c4cc5ccc4CCc4ccc(c(-c6ccc7[nH]c([C@@H]8C[C@@H]9CCCC[C@@H]9N8C(=O)[C@H](CCC#N)NC(=O)OC)nc7c6)c4)CC5)ccc3[nH]2)C[C@@H]2CCCC[C@@H]21` [Compound 110], the EC50 amounted to 0.006 nM.

With `COC(=O)N[C@H](C(=O)N1[C@H](c2nc3cc(-c4cc5ccc4CCc4ccc(c(-c6ccc7[nH]c([C@@H]8C[C@@H]9CCCC[C@@H]9N8C(=O)[C@@H](NC(=O)OC)[C@@H](C)OC)nc7c6)c4)CC5)ccc3[nH]2)C[C@@H]2CCCC[C@@H]21)[C@@H](C)OC` [Compound 111], the half-maximal effective concentration (EC50) came to 0.005 nM.

The experiment is the same for the next values; noted with them: Hepatitis C virus, Huh-7; Example 9 replicon assay; read-out: EC50 values in HCV replicon assay.
As to `CC(C)(C)OC(=O)N1[C@H](c2nc3ccc(B4OC(C)(C)C(C)(C)O4)cc3[nH]2)C[C@@H]2CCCC[C@@H]21` [Compound 16, (2S,3aS,7aS)-tert-butyl 2-(6-(4,4,5,5-tetramethyl-1,3,2-dioxaborolan-2-yl)-1H-benzo[d]imidazol-2-yl)octahydro-1H-indole-1-carboxylate], the EC50 was at most 10000 nM.

Take `CC(C)(C)OC(=O)Nc1ccc(B2OC(C)(C)C(C)(C)O2)cc1NC(=O)OC(C)(C)C` [Compound 25, di-tert-butyl (4-(4,4,5,5-tetramethyl-1,3,2-dioxaborolan-2-yl)-1,2-phenylene)dicarbamate]: the EC50 was at most 10000 nM.

As for `COC(=O)N[C@H](C(=O)N1CCC[C@H]1c1nc(-c2ccc(-c3cc4ccc3CCc3ccc(c(-c5ccc(-c6c[nH]c([C@@H]7CCCN7C(=O)[C@@H](NC(=O)OC)C(C)C)n6)cc5)c3)CC4)cc2)c[nH]1)C(C)C` [Compound 40], the EC50 was at most 10000 nM.

Broadly, the EC50 is the concentration at which the effect is half-maximal.
